Laboratory results taken from patent US6599893B2, “Cephalosporin antibiotics and prodrugs thereof” (Essential Therapeutics, Inc., priority 2000, dated 2003).
Values after ≈ are worked out from the molar mass of the structure shown.

Legend:
[1] = Human serum binding estimated from serum effect on MIC (HSB*); assay type: in vitro ADME; conditions: MIC against S. aureus ATCC 29213 in growth medium vs 1:1 growth medium and human serum
Excerpt: An estimate of human serum binding (HSB*) was obtained for some compounds using the MIC values against S. aureus ATCC 29213 determined in growth medium (GM) and in a 1:1 mixture of growth medium and human serum (GM+HS):
HSB*=(MICGM+HS−MICGM)/MICGM 100%

[2] = system: Staphylococcus aureus 76 (MRSA, β-lactamase producing); test: Broth microdilution MIC, S. aureus 76; assay type: cell-based; conditions: Staphylococcus aureus 76 (MRSA, β-lactamase producing); read-out: MIC S. a. 76
Procedure: (§1) Compounds were evaluated for antimicrobial activity against a panel of bacterial strains using a broth microdilution assay performed as recommended by the NCCLS (NCCLS (National Committee for Clinical Laboratory Standards). 1993. Methods for dilution antimicrobial susceptibility tests for bacteria that grow aerobically. NCCLS Document M7-A3, 1993. In: NCCLS Antimicrobial Susceptibility Testing, 3rd Ed.)
(§2) The minimum inhibitory concentration (MIC) is defined as the lowest concentration of a compound that prevents the growth of the bacteria.

[3] = system: Staphylococcus aureus Smith (MSSA); test: Broth microdilution MIC, S. aureus Smith; assay type: cell-based; conditions: Staphylococcus aureus Smith (MSSA); read-out: MIC S. a. Smith
Procedure: as §1, §2

[4] = system: Staphylococcus aureus COL (MRSA, non-β-lactamase producing); test: Broth microdilution MIC, S. aureus COL; assay type: cell-based; conditions: Staphylococcus aureus COL (MRSA, non-β-lactamase producing); read-out: MIC S. a. COL
Procedure: as §1, §2

[5] = system: Enterococcus faecium ATCC 35667; test: Broth microdilution MIC, E. faecium ATCC 35667; assay type: cell-based; conditions: ATCC35667; Enterococcus faecium ATCC 35667; read-out: MIC E. f. 35667
Procedure: as §1, §2

[6] = system: Staphylococcus aureus ATCC 29213 (MSSA); test: Broth microdilution MIC, S. aureus ATCC 29213; assay type: cell-based; conditions: Staphylococcus aureus ATCC 29213 (MSSA); read-out: MIC S. a. 29213
Procedure: as §1, §2

[7] = Human serum binding by ultrafiltration; assay type: in vitro ADME; conditions: pooled human serum, ultrafiltration, 10 minutes at 37° C.
Procedure: Binding of several representative compounds of this invention in pooled human serum was determined using ultrafiltration. Compounds were incubated in serum for 10 minutes at 37° C. in a shaking water bath. Serum ultrafiltrate was accomplished by centrifugation (Amicon Centrifree) for 20 minutes at 25° C. Compound content in the ultrafiltrate was quantified by HPLC. An ultrafilrate obtained by following the same procedure with no added compound was used as a standard.

[8] = system: Enterococcus faecalis ATCC 29212; test: Broth microdilution MIC, E. faecalis ATCC 29212; assay type: cell-based; conditions: ATCC29212; Enterococcus faecalis ATCC 29212; read-out: MIC E. f. 29212
Procedure: as §1, §2

Row | SMILES | HSB*, human serum binding calculated using serum effect on MIC [1] | MIC [2] | MIC [3] | MIC [4] | MIC [5] | MIC [6] | HSB, human serum binding [7] | MIC [8]
1 | Nc1nc(C(=NO)C(=O)N[C@@H]2C(=O)N3C(C(=O)O)=C(Sc4nnc[nH]4)CSC23)c(Cl)s1 (stereo partly drawn) [Compound 40, (7R)-7-[2-(2-Amino-5-chlorothiazol-4-yl)-2-hydroxyimino-acetylamino]-8-oxo-3-(4H-[1,2,4]triazol-3-ylsulfanyl)-5-thia-1-aza-bicyclo[4.2.0]oct-2-ene-2-carboxylic acid] | 88% | 8 µg/mL (≈ 15.9 µM) | 0.5 µg/mL (≈ 0.994 µM) | 8 µg/mL (≈ 15.9 µM) | 4 µg/mL (≈ 7.95 µM) | 0.25 µg/mL (≈ 0.497 µM) | 92% | 1 µg/mL (≈ 1.99 µM)
2 | Nc1nc(C(=NO)C(=O)N[C@@H]2C(=O)N3C(C(=O)O)=C(Sc4nncs4)CSC23)c(Cl)s1 (stereo partly drawn) [Compound 41, (7R)-7-[2-(2-Amino-5-chlorothiazol-4-yl)-2-hydroxyiminoacetylamino]-8-oxo-3-([1,3,4]thiadiazol-2-ylsulfanyl)-5-thia-1-aza-bicyclo[4.2.0]oct-2-ene-2-carboxylic acid] | 98% | 1 µg/mL (≈ 1.92 µM) | 0.125 µg/mL (≈ 0.24 µM) | 1 µg/mL (≈ 1.92 µM) | 0.5 µg/mL (≈ 0.962 µM) | 0.125 µg/mL (≈ 0.24 µM) | 91% | 0.25 µg/mL (≈ 0.481 µM)
3 | Nc1nnc(SC2=C(C(=O)O)N3C(=O)[C@@H](NC(=O)C(=NOCCF)c4nc(N)sc4Cl)C3SC2)s1 (stereo partly drawn) [Compound 42, (7R)-7-[2-(2-Amino-5-chlorothiazol-4-yl)-2-(2-fluoroethoxyimino)-acetylamino]-3-(5-amino-[1,3,4]thiadiazol-2-ylsulfanyl)-8-oxo-5-thia-1-aza-bicyclo[4.2.0]oct-2-ene-2-carboxylic acid] | 75% | 2 µg/mL (≈ 3.44 µM) | 0.25 µg/mL (≈ 0.43 µM) | 2 µg/mL (≈ 3.44 µM) | 4 µg/mL (≈ 6.88 µM) | 0.5 µg/mL (≈ 0.86 µM) | 65% | 1 µg/mL (≈ 1.72 µM)

More lines, now with the values ahead:

Row | HSB*, human serum binding calculated using serum effect on MIC [1] | MIC [2] | MIC [3] | MIC [4] | MIC [5] | MIC [6] | HSB, human serum binding [7] | MIC [8] | SMILES
4 | 94% | 2 µg/mL (≈ 3.74 µM) | 0.25 µg/mL (≈ 0.467 µM) | 1 µg/mL (≈ 1.87 µM) | 1 µg/mL (≈ 1.87 µM) | 0.25 µg/mL (≈ 0.467 µM) | 90% | 0.25 µg/mL (≈ 0.467 µM) | Nc1nnc(SC2=C(C(=O)O)N3C(=O)[C@@H](NC(=O)C(=NO)c4nc(N)sc4Cl)C3SC2)s1 (stereo partly drawn) [Compound 36, (7R)-7-[2-(2-amino-5-chlorothiazol-4-yl)-2-hydroxyiminoacetylamino]-3-(5-amino-[1,3,4]thiadiazol-2-ylsulfanyl)-8-oxo-5-thia-1-aza-bicyclo[4.2.0]oct-2-ene-2-carboxylic acid]
5 | 50% | 4 µg/mL (≈ 7.98 µM) | 0.125 µg/mL (≈ 0.249 µM) | 4 µg/mL (≈ 7.98 µM) | 1 µg/mL (≈ 1.99 µM) | 0.25 µg/mL (≈ 0.498 µM) | 79% | 2 µg/mL (≈ 3.99 µM) | Nc1nc(C(=NO)C(=O)N[C@@H]2C(=O)N3C(C(=O)O)=C(Sc4nnc(N)s4)CSC23)ns1 (stereo partly drawn) [Compound 37, (7R)-7-[2-(5-Amino-[1,2,4]thiadiazol-3-yl)-2-hydroxyimino-acetylamino]-3-(5-amino-[1,3,4]thiadiazol-2-ylsulfanyl)-8-oxo-5-thia-1-aza-bicyclo[4.2.0]oct-2-ene-2-carboxylic acid]
